In US20050130909A1 (priority 2002, published 2005):
Where “and” joins values, the source holds several entries; their conditions need not be identical. Identical values can stand only once.

Legend:
[1] = Rat quantitative tissue distribution study; format: in vivo, Sprague-Dawley rats
Procedure: Quantitative tissue distribution studies were conducted to assess the tissue distribution of dalbavancin following a single IV infusion of dalbavancin to male rats.
All samples were analyzed by LSC.

bovine albumin = bovine albumin (Bos taurus, UniProt P02769); test: Protein binding by ITC; details: 25° C.; pH 7.4
[2] = Stability of dalbavancin in plasma; format: in vitro ADME, human; details: 1.5 and 90 μg/ml
[3] = Safety assessments in healthy subjects; format: in vivo, human
Procedure: Adverse events were recorded and assessed for severity and relationship to study drug. Laboratory data (chemistry panel, CBC with differential, urinalysis) were collected and assessed for changes from baseline and out-of-range values. ECG, physical examination, and vital signs were obtained, and changes from baseline were assessed.

streptococci = test: In vitro antibacterial activity; format: cell-based; details: including penicillin-resistant strains
bacteria = details: cited from earlier work
Lys-D-Ala-D-Lactate = test: ITC, preliminary experiments; format: binding; details: absence of serum proteins
[4] = tested on: skin and soft tissue infections (SSTI); test: Phase II SSTI trial: clinical response (success = cure or improvement); format: in vivo, human; details: for Clinical success rate at FU, patients with MRSA: MITT population; for Clinical success rate, exploratory subanalysis: patients with deep or complicated SSTI at baseline
Procedure: This randomized, controlled study evaluated the safety and efficacy of two dose regimens of dalbavancin.
There were 62 patients randomized into the study; all received at least one dose of study medication. Four study populations were evaluated for safety and efficacy and were defined as follows: The intent-to-treat (ITT) population included all patients who received at least one dose of study drug (all randomized study subjects).
The effectiveness of the three treatment regimens was determined by assessing the patients' clinical response and the documented or presumed microbiological responses. The primary efficacy endpoint was clinical response at the follow-up visit for the clinically evaluable population. Clinical response, for both EOT and FU visits, was categorized as success (cure or improvement) or failure (including indeterminate results). Patients classified as successes must not have received additional systemic antibacterial treatment for their infection. Failure was defined as persistence of one or more local or systemic signs and symptoms of SSTI such that treatment with new or additional systemic antibacterial agents was required for the SSTI.

dog albumin = dog albumin (Canis lupus familiaris, UniProt P49822); test: Protein binding by ITC; details: pH 7.4
[5] = Pharmacokinetics and renal excretion in healthy subjects; format: in vivo, human
Procedure: Blood samples were drawn into heparinized tubes and centrifuged. Plasma was separated and stored frozen at −20° C. until time of assay. Plasma and urine samples were assayed for dalbavancin using validated LC/MS/MS methods. […] The peak concentration (Cmax) values were obtained directly from the observed data. The area under the plasma concentration-time curve (AUC) was calculated using the linear trapezoidal rule. Clearance (CL) was computed as dose/AUC. The elimination half life (t1/2) was estimated by linear regression of the log-linear portion of the log concentration versus time curve. Estimates of the volume of distribution (VZ) was calculated using the regression parameters, while the volume of distribution at steady state (Vss) was calculated from the area under the first moment curve (AUMC) multiplied by the dose and divided by AUC. The cumulative amount of dalbavancin excreted in urine was determined as the integrand of the urine excretion rate (AURC). CLR, or renal clearance, was calculated as the ratio: CLR=AURC/AUC.

HSA = HSA (Homo sapiens, UniProt P02768); test: MALDI-TOF mass spectrometry of protein-dalbavancin complexes; format: binding; details: ratios (1:2, 1:10)
Procedure: The samples were prepared for analysis using the dried droplet technique. Spectra were obtained on a BRUKER FLEX III, tof mass spectrometer previously tuned and calibrated using standard bovine serum albumin, acquiring and averaging spectra generated by 200 laser shots. Matrix: 9 parts of DHB-9 (2,5-dihydroxy-benzoic acid) saturated in acetonitrile/H2O (50:50), 1 part of sinapinic acid saturated in acetonitrile/H2O (50:50). 0.5 ul of sample solution and 0.5 ul of matrix solution were mixed and placed on the laser target.

human α-glycoprotein = test: Protein binding by ITC; details: for Apparent binding affinity Ka: pH 7.4; for Calculated percent Binding to Human α-glycoprotein: protein […]10^−5 M assumed
[6] = AE possibly related, upper limit of normal 40 IU/L
[7] = single 1000 mg IV dose, healthy subjects
[8] = six healthy volunteers, single 1000 mg IV

Sequence of dog albumin (P49822 25-608): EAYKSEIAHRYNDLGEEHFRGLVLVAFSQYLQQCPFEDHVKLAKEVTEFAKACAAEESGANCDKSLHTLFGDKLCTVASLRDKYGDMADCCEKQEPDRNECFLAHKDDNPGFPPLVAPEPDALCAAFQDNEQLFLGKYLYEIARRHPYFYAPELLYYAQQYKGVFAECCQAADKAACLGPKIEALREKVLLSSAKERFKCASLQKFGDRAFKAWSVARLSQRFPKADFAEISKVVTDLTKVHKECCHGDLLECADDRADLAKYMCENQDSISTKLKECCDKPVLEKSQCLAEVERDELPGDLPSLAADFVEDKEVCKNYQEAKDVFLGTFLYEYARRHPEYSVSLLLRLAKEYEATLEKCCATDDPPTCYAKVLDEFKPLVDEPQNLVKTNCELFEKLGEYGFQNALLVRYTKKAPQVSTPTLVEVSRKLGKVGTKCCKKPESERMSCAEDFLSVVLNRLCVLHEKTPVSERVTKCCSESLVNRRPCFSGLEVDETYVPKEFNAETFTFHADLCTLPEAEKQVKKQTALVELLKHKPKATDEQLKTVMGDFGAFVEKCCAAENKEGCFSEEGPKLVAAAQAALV
Sequence of HSA (P02768 25-609): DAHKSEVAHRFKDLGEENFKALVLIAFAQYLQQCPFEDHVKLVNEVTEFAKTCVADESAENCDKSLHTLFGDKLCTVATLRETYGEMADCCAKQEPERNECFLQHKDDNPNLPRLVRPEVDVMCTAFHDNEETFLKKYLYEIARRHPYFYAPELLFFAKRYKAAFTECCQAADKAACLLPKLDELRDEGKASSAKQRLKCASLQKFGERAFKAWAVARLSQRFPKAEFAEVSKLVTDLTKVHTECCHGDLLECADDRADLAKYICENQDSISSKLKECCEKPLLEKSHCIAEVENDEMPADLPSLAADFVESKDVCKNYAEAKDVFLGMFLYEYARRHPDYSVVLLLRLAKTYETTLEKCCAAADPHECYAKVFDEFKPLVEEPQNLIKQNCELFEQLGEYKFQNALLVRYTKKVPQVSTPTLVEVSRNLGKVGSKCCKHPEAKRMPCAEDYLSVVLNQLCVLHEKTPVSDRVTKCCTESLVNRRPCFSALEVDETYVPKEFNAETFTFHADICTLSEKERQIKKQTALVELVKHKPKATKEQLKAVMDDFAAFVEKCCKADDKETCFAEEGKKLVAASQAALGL
Sequence of bovine albumin (P02769 25-607): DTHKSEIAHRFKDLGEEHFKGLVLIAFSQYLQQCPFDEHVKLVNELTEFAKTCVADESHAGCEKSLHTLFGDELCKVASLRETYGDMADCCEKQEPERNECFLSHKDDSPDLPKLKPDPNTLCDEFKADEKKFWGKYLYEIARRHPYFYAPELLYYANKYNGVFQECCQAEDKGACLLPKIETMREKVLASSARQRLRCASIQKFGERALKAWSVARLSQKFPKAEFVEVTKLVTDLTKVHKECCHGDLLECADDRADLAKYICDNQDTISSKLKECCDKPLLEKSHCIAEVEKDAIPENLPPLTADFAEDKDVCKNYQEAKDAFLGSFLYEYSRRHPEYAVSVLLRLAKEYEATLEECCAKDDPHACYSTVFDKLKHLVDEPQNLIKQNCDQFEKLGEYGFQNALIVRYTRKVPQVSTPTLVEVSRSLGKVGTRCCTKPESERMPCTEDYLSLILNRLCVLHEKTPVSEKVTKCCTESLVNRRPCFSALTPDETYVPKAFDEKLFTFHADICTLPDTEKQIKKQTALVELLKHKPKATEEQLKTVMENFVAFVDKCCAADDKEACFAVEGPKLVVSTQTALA

CN[C@H]1C(=O)N[C@@H]2Cc3ccc(cc3)Oc3cc4cc(c3O[C@@H]3O[C@H](C(=O)O)[C@@H](O)[C@H](O)[C@H]3NC(=O)CCCCCCCCC(C)C)Oc3ccc(cc3Cl)[C@@H](O)[C@@H]3NC(=O)[C@H](NC(=O)[C@@H]4NC(=O)[C@@H](NC2=O)c2cc(cc(O)c2Cl)Oc2cc1ccc2O)c1ccc(O)c(c1)-c1c(O[C@H]2O[C@H](CO)[C@@H](O)[C@H](O)[C@@H]2O)cc(O)cc1[C@@H](C(=O)NCCCN(C)C)NC3=O [Dalbavancin]
Dose recovered in the bile ([1]; bile duct cannulated rats, over 384 h after the dose): ~11 % of the dose
Concentrations of radioactivity in the CNS ([1]; healthy rats): low but detectable
Time by which all tissues had quantifiable drug-derived radioactivity ([1]; male rats, single IV infusion 20 mg/kg): ≤ 12 h
Skin penetration: drug-derived radioactivity in skin relative to plasma ([1]; rats): as high as or higher than in plasma
Tissue accumulation ([1]; rats, through 70 days): did not accumulate in any single tissue, organ, or blood cellular component
Apparent binding affinity Ka (bovine albumin): 1.38 (±0.14) ×10^5 M^−1
Stability in processed plasma samples ([2]; 24 hours at room temperature): stable after 24 hours at room temperature
Stability in human plasma, freeze-thaw ([2]; three cycles of freeze-thaw): stable after three cycles of freeze-thaw treatment
Eosinophilia, individual subject value ([3]; AE possibly related, upper limit of normal 0.4×10^3/μL): 500 µL⁻¹
Elevated ALT, individual subject value [3, 6]: 46 IU/L and 54 IU/L
Elevated AST, individual subject value [3, 6]: 42 IU/L
Elevated LDH, individual subject value ([3]; AE possibly related, upper limit of normal 90 IU/L): 303 IU/L
Post-baseline hematology, chemistry, vital signs, and ECG ([3]; single 1000 mg IV): No trends were seen
Deaths or serious adverse events [3, 7]: No subject deaths or serious adverse events were reported
Tolerability [3, 7]: well-tolerated
AEs possibly related to study medication [3, 8]: Three volunteers reported AEs that were possibly related to study medication
Adverse events, incidence and intensity [3, 8]: All volunteers reported at least one AE, all of mild intensity
Activity relative to teicoplanin or vancomycin (streptococci): better activity against streptococci, including penicillin-resistant strains, than teicoplanin or vancomycin
Concentrations known to be bactericidal (bacteria): 4 to 32 mg/L
Binding to Lys-D-Ala-D-Lactate (Lys-D-Ala-D-Lactate): no evidence of binding
Clinical success rate ([4]; Clinically evaluable at EOT, single-dose 1100 mg): 13/16 (61.5) %
Clinical success rate ([4]; Clinically evaluable at EOT, two-dose 1000/500 mg): 16/17 (94.1) %
Clinical success rate ([4]; ITT at EOT, single-dose dalbavancin 1100 mg IV day 1): 15/20 (75.0) %
Clinical success rate ([4]; ITT at EOT, two-dose dalbavancin 1000 mg day 1 + 500 mg day 8 IV): 19/21 (90.5) %
Clinical success rate ([4]; ITT at FU, single-dose 1100 mg): 12/20 (60.0) %
Clinical success rate ([4]; ITT at FU, two-dose 1000/500 mg): 19/21 (90.5) %
Clinical success rate ([4]; MITT at EOT, single-dose 1100 mg): 10/14 (71.4) %
Clinical success rate ([4]; MITT at EOT, two-dose 1000/500 mg): 12/13 (92.3) %
Clinical success rate ([4]; MITT at FU, single-dose 1100 mg): 7/14 (50.0) %
Clinical success rate ([4]; MITT at FU, two-dose 1000/500 mg): 12/13 (92.3) %
Clinical success rate at FU, patients with MRSA ([4]; single-dose dalbavancin): 50%
Clinical success rate at FU, patients with MRSA ([4]; two-dose dalbavancin): 80%
Clinical success rate ([4]; Microbiologically evaluable at EOT, single-dose 1100 mg): 10/13 (76.9) %
Clinical success rate ([4]; Microbiologically evaluable at EOT, two-dose 1000/500 mg): 10/11 (90.9) %
Clinical success rate ([4]; Microbiologically evaluable at FU, single-dose 1100 mg): 6/11 (54.5) %
Clinical success rate ([4]; Microbiologically evaluable at FU, two-dose 1000/500 mg): 10/11 (90.9) %
Clinical success rate, exploratory subanalysis ([4]; single-dose dalbavancin): 58.3%
Clinical success rate, exploratory subanalysis ([4]; two-dose dalbavancin): 93.8%
Apparent binding affinity Ka (dog albumin; 25° C.): 0.62 (±0.09) ×10^5 M^−1
Apparent binding affinity Ka (dog albumin; 37° C.): 0.50 (±0.13) ×10^5 M^−1
AURC (cumulative amount excreted in urine) ([5]; Mean, single 1000 mg IV): 419 mg
CL ([5]; Mean, single 1000 mg IV): 0.0431 ± 0.0074 L/h
CLR ([5]; Mean, single 1000 mg IV): 0.018 L/h
Vz ([5]; Mean, single 1000 mg IV): 16.0 L
CLR ([5]; Min, single 1000 mg IV): 0.0130 L/h
Peak concentration of dalbavancin in man ([5]; conversion of approximately 300 mg/L): 165 µM
Peak plasma concentrations ([5]; immediately following end of infusion, single 1000 mg IV): approximately 300 mg/L
Plasma concentrations maintained for at least seven days ([5]; single intravenous infusion of 1000 mg): above 45 mg/l
Complex with HSA at very high dalbavancin to protein ratios (HSA): complexes containing 2 molecules of dalbavancin per protein molecule can be observed
Apparent binding affinity Ka (human α-glycoprotein; 25° C.): 1.84 (±0.36) ×10^5 M^−1
Apparent binding affinity Ka (human α-glycoprotein; 37° C.): 4.8 (±2.3) ×10^5 M^−1
Calculated percent Binding to Human α-glycoprotein (human α-glycoprotein; antibiotic 1 μM): 73.0%
Calculated percent Binding to Human α-glycoprotein (human α-glycoprotein; antibiotic 10 μM): 68.2%
Calculated percent Binding to Human α-glycoprotein (human α-glycoprotein; antibiotic 100 μM): 26.2%
Calculated percent Binding to Human α-glycoprotein (human α-glycoprotein; antibiotic 165 μM): 16.9%
Calculated percent Binding to Human α-glycoprotein (human α-glycoprotein; antibiotic 250 μM): 11.4%
Calculated percent Binding to Human α-glycoprotein (human α-glycoprotein; antibiotic 500 μM): 5.9%
